Values quoted from earlier work in US7205292B2, “CGRP receptor antagonists” (Merck & Co., Inc., priority 2003, dated 2007).

Legend:
CGRP [1] = conditions: marmoset, electrical stimulation of the trigeminal ganglion
CGRP [2] = conditions: rats, electrical stimulation of the dura mater, prior administration
CGRP [3] = conditions: rat, trigeminal ganglion stimulation

Compound | effect on increase in facial blood flow (CGRP [1]) | effect on increased diameter of the middle meningeal artery (CGRP [2]) | effect on increased facial blood flow (CGRP [3])
NCCCC[C@H](NC(=O)[C@@H](Cc1cc(Br)c(O)c(Br)c1)NC(=O)N1CCC(N2Cc3ccccc3NC2=O)CC1)C(=O)N1CCN(c2ccncc2)CC1 [BIBN4096BS] | blocked | – | –
CGRP(8-37) | – | blocked | inhibited
